Reference: patent US20090137601A1, “L-Phenylalanine Derivatives” (ASTRAZENECA AB, priority 2005, published 2009)

target: T1, α5β1 integrin (Homo sapiens, UniProt P05556+P08648); assay: In vitro cell adhesion assay: α5β1 integrin mediated adhesion of K562 cells to fibronectin fragment Fn9-10; type: cell-based; settings: human K562 erythroleukaemia cells; Fn9-10 coated plates; 0.2 mM MnCl; 45 minutes at 37° C.; crystal violet absorbance at 590 nm
T1 construct: α5β1 integrin mediated adhesion of K562 cells; host or cells: K562 human erythroleukaemia cells (integrin, endogenous); E. coli (Fn9-10 ligand, made in house)
Text: The assay determined the ability of compounds to inhibit the α5β1 integrin mediated adhesion of K562 cells to the ligand, a fragment of human fibronectin. The human K562 erythroleukaemia cell line (LGC Promochem, Teddington, Middlesex, UK, Catalogue No. CCL-243) was routinely maintained in RPMI 1640 medium (Sigma-Aldrich Company Ltd, Gillingham, Dorset SP8 4XT, Catalogue No. R0883) containing 10% heat-inactivated foetal calf serum (PAA lab GmbH, Pasching, Austria Catalogue No. PAA-A15-043) and 1% glutamax-1 (Invitrogen Ltd. Paisley, UK Catalogue No. 35050-038) at 37° C. with 5% CO2 at densities between 1×10^5 and 1×10^6 cells/ml.
A DNA fragment encoding the domains 9-10 (amino-acids 1325-1509) of human fibronectin (Swiss-Prot Accession No. P02751) was isolated from cDNA libraries using standard molecular biology and PCR cloning techniques. The cDNA fragment was sub-cloned into a pT7#3.3 expression vector containing a GST-epitope tag (developed at AstraZeneca; Bagnall et al., Protein Expression and Purification, 2003, 27: 1-11), and the fragment termed Fn9-10. Following expression in E. coli, the expressed protein was purified using the GST-tag using standard purification techniques.
For adhesion assay, a 96-well flat bottomed plate (Greiner Bio one ltd., Gloucester GL10 3SX Catalogue No. 655101) was coated overnight at 4° C. with 100 μl of 20 μg/ml Fn9-10 ligand in Dulbecco's PBS (Gibco #14190-94). The plate was then washed twice with 200 μl of PBS and blocked with 100 μl of 3% BSA (SigmaA7888) in PBS for 1 hour at 37° C. The plates were then washed again 3 times with 200 μl of PBS and left empty. […]
After fixation, the ethanol was flicked off to waste and 100 μl of 0.1% Crystal violet stain was added to each well, and incubated at ambient temperature for 15 minutes. […] Finally, 100 μl of deionised water was added to each well and the absorbance was determined at 590 nm on a spectrophotometer. The minimum value was subtracted from all values, and the absorbance signal was plotted against compound concentration to generate IC50 data.

T1 sequence (P08648 42-894 limits assumed): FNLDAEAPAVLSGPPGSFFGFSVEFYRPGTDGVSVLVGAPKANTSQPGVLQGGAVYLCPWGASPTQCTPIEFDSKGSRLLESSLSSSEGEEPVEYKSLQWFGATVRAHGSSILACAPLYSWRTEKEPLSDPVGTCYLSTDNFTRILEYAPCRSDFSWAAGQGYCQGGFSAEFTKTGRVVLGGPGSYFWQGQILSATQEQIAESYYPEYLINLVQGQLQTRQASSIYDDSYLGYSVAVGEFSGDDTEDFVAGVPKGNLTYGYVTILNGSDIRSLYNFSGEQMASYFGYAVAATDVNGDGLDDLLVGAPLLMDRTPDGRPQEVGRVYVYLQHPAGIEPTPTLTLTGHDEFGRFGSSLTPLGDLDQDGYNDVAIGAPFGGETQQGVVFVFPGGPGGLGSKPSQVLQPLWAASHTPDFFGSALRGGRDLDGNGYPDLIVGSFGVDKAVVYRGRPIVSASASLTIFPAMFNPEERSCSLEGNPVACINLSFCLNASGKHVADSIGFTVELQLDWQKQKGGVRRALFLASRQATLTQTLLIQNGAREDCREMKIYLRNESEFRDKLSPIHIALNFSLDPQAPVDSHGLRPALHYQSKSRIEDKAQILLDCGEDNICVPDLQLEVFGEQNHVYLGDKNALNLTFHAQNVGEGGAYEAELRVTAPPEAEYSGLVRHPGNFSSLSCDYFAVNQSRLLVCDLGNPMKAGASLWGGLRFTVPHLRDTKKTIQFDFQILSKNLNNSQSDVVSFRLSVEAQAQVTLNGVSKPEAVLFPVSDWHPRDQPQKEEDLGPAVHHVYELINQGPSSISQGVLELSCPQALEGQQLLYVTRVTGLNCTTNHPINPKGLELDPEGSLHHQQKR
T1 sequence (P08648 895-1049 partner limits assumed): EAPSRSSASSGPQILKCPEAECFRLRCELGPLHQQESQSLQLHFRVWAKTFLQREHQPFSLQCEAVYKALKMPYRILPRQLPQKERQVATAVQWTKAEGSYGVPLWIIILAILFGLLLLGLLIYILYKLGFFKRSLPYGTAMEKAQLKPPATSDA
T1 sequence (P05556 21-798): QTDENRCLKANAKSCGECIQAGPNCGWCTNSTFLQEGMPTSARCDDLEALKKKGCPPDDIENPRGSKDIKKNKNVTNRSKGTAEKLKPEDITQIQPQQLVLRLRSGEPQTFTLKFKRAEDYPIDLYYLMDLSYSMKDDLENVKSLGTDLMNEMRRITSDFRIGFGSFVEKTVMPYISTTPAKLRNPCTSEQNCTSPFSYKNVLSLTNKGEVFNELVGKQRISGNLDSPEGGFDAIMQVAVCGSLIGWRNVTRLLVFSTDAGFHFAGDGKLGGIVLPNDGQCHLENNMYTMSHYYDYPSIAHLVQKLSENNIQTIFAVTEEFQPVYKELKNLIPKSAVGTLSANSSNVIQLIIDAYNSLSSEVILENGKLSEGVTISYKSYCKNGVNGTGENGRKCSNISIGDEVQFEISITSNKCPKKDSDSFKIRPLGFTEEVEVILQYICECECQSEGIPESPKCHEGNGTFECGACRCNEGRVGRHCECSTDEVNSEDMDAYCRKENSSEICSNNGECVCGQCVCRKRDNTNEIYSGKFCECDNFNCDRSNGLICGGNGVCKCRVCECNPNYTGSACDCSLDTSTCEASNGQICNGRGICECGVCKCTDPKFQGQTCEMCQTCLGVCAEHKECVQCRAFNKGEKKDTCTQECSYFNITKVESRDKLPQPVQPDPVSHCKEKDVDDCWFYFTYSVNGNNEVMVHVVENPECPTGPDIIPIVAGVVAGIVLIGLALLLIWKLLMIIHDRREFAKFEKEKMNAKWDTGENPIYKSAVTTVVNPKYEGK

IC50, ≥ 30 µM:
Cc1cccc(Cl)c1C(=O)N[C@@H](Cc1ccc(C2=CCN(Cc3ccc(F)cc3)CC2)cc1)C(=O)O [N-(2-chloro-6-methylbenzoyl)-4-[1-(4-fluorobenzyl)-1,2,3,6-tetrahydropyridin-4-yl]-L-phenylalanine]
O=C(N[C@@H](Cc1ccc(C2CCN(Cc3ccccc3F)CC2)cc1)C(=O)O)c1c(Cl)cccc1Cl [N-(2,6-dichlorobenzoyl)-4-[1-(2-fluorobenzyl)piperidin-4-yl]-L-phenylalanine]
COc1cccc(CN2CCC(c3ccc(C[C@H](NC(=O)c4c(Cl)cccc4Cl)C(=O)O)cc3)CC2)c1 [N-(2,6-dichlorobenzoyl)-4-[1-(3-methoxybenzyl)piperidin-4-yl]-L-phenylalanine]
